# Data: patent US11472803B2, “7-substituted 1-aryl-naphthyridine-3-carboxylic acid amides and use thereof” (Bayer Aktiengesellschaft, priority 2016, dated 2022)
# Tests used:
# [1] = target: T1, human M2 receptor (Homo sapiens, UniProt P08172); test: Functional M2-GIRK1/4 activation test: positive cooperativity (α factor), shift of acetylcholine dose-response curve; format: cell-based; settings: Allosteric EC50 shift of acetylcholine 8-point dose-response curve; CHO-DUKX-M2-GIRK cells; α>1 = positive cooperativity
# T1 construct: expressed in transfected cells; host or cells: CHO-DUKX (CHO-DUKX-M2-GIRK)
# T1 sequence (P08172 1-466): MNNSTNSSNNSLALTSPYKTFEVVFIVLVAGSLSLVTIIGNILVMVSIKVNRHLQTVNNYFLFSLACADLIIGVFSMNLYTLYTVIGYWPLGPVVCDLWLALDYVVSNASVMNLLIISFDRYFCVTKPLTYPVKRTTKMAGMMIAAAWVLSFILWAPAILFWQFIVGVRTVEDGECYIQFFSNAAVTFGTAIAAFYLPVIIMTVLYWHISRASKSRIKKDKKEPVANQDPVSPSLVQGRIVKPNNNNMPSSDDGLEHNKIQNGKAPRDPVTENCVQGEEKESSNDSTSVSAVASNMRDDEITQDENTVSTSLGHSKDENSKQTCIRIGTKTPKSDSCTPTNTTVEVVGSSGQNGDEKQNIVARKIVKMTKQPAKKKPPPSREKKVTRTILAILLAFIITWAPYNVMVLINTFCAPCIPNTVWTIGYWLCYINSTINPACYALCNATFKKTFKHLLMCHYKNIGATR
# From the text: The binding of orthosteric agonists (endogenous ligand: acetylcholine) to the M2 receptor leads to receptor activation or a change in conformation of the receptor in the manner of a shift in equilibrium in favour of the active receptor conformation.
# The agonist-induced change in conformation of the M2 receptor results in a Gαi protein activation. […] Under physiological conditions, the result is then a selective efflux of potassium from the cell along the electrochemical gradient. […] The extent of hyperpolarization can therefore be regarded as a measure of the activation of the M2 receptor.
# The test cell used is a recombinant CHO-DUKX cell line which has been stably transfected with cDNA coding for the human M2 receptor and with cDNA coding for both GIRK1/4 subunits (CHO-DUKX-M2-GIRK). The transmembrane potential, or the relative changes in the transmembrane potential as a function of substance addition or M2 activation, is determined by means of a voltage-sensitive dye (FLIPR Membrane Potential Assay Kit Blue, Molecular Devices #R8034) and the measurement of cell fluorescence using a proprietary fluorescence imaging instrument.
# In accordance with the desired test concentrations, the substances were pre-diluted in loading buffer (see above).
# The sowing medium consisted of MEM alpha medium (supplemented with 5% PCS, 2% Glutamax, no genticin).
# For the particular measurement, the medium was removed and the cells were laden with the volt-age-sensitive dye for at least 6 min at room temperature (30 μl of loading buffer per 384-well). This was followed, in a first measurement, by the determination of the resting transmembrane potential for a period of 5 sec in 1 sec increments. Thereafter, 10 μl in each case of the test substances diluted in loading buffer are added, followed by a second measurement to determine the transmembrane potential for a period of 50 sec in 1 sec increments.
# Finally, the cells are admixed with 10 μl of agonist solution (acetylcholine dissolved in loading buffer). In contrast to the EC50 determination of the test substances (see B-1.1), however, this is not done using one acetylcholine concentration; instead, every concentration of the test substance is combined with an acetylcholine 8-point dose-response curve. […] The M2-mediated GIRK1/4 activation or hyperpolarization is then monitored in a third measurement over a period of 60 sec in 1 sec increments. The shift in the acetylcholine dose-response curve in the presence of increasing concentrations of the test substance is analysed and quantified by means of GraphPad PRISM (Allosteric EC50 shift). […] Positive cooperativity is the hallmark of a positive allosteric modulator. […] The greater the magnitude of the α value, the greater the extent of cooperativity between orthosteric and allosteric.
# [2] = target: T1, human M2 receptor; test: Functional M2-GIRK1/4 activation test: allosteric potency (EC50) and efficiency at EC20 acetylcholine; format: cell-based; settings: CHO-DUKX-M2-GIRK cells; for EC50: voltage-sensitive dye, acetylcholine at EC20, in some cases mean of two or more determinations; for Emax / Efficiency: boosting of the acetylcholine effect at EC20 acetylcholine concentration
# Outline: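 CHO-DUKX cells stably expressing human M2 and GIRK1/4; membrane potential tracked with voltage-sensitive dye at room temperature. Compound added 50 s before acetylcholine at its EC20, then hyperpolarization read 60 s. EC50 (allosteric potency) and efficiency (boost of EC20 ACh effect) from 4-parameter Hill fit.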
SMILES,Cooperativity (alpha factor) [1],EC50 [2] [nM],Emax [2] [%],Efficiency [2] [%]
"O=C(NC(C1CC1)C(F)(F)C(F)(F)F)c1cn(-c2c(F)cc(F)cc2F)c2nc(N3C[C@@H](O)[C@H](O)C3)c(F)cc2c1=O (single isomer, unassigned) [Example 201]",39,1.6,100,–
"O=C(NC(C1CC1)C(F)(F)C(F)(F)F)c1cn(-c2c(F)cc(F)cc2F)c2nc(N3CC(CO)(CO)C3)c(F)cc2c1=O (single isomer, unassigned) [Example 205, 7-[3,3-bis(hydroxymethyl)azetidin-1-yl]-N-[1-cyclopropyl-2,2,3,3,3-pentafluoropropyl]-6-fluoro-4-oxo-1-(2,4,6-trifluorophenyl)-1,4-dihydro-1,8-naphthyridine-3-carboxamide]",25,3.1,100,–
"O=C(NC(C1CC1)C(F)(F)C(F)(F)F)c1cn(-c2c(F)cc(F)cc2F)c2nc(N3CC(CO)(CO)C3)c(F)cc2c1=O (single isomer, unassigned) [Example 207, 7-[3,3-bis(hydroxymethyl)azetidin-1-yl]-N-[1-cyclopropyl-2,2,3,3,3-pentafluoropropyl]-6-fluoro-4-oxo-1-(2,4,6-trifluorophenyl)-1,4-dihydro-1,8-naphthyridine-3-carboxamide]",24,3.3,–,100
"C[C@@H](NC(=O)c1cn(-c2c(F)cc(F)cc2Cl)c2nc(N3C[C@@H](O)[C@H](O)C3)c(F)cc2c1=O)C(F)(F)F (single isomer, unassigned) [Example 228]",33,6.4,–,93
"CC(C)C[C@H](NC(=O)c1cn(-c2c(F)cc(F)cc2F)c2nc(N3CC(O)[C@H](O)C3)c(F)cc2c1=O)C(F)(F)F (stereo in doubt) [Example 11, 7-[(3R,4S)-3,4-dihydroxypyrrolidin-1-yl]-6-fluoro-4-oxo-N-[(2S)-1,1,1-trifluoro-4-methylpentan-2-yl]-1-(2,4,6-trifluorophenyl)-1,4-dihydro-1,8-naphthyridine-3-carboxamide]",60,5.8,100,–
"CC(C)(CC(F)(F)F)NC(=O)c1cn(-c2c(F)cccc2F)c2nc(N3C[C@@H](O)[C@H](O)C3)c(F)cc2c1=O [Example 1, 1-(2,6-Difluorophenyl)-7-[(3R,4R)-3,4-dihydroxypyrrolidin-1-yl]-6-fluoro-4-oxo-N-(4,4,4-tri-fluoro-2-methylbutan-2-yl)-1,4-dihydro-1,8-naphthyridine-3-carboxamide]",35,21,92,–
"CC[C@H](NC(=O)c1cn(-c2c(F)cc(F)cc2F)c2nc(N3C[C@@H](O)[C@H](O)C3)c(F)cc2c1=O)C(F)(F)F [Example 6, 7-[(3R,4R)-3,4-Dihydroxypyrrolidin-1-yl]-6-fluoro-4-oxo-N-[(2S)-1,1,1-trifluorobutan-2-yl]-1-(2,4,6-trifluorophenyl)-1,4-dihydro-1,8-naphthyridine-3-carboxamide]",58,6.17,94,–
"O=C(N[C@@H](C1CC1)C(F)(F)F)c1cn(-c2c(F)cc(F)cc2F)c2nc(N3C[C@@H](O)[C@H](O)C3)c(F)cc2c1=O [Example 7, N-[(1S)-1-Cyclopropyl-2,2,2-trifluoroethyl]-7-[(3R,4R)-3,4-dihydroxypyrrolidin-1-yl]-6-fluoro-4-oxo-1-(2,4,6-trifluorophenyl)-1,4-dihydro-1,8-naphthyridine-3-carboxamide]",57,5.64,93,–
"CC(C)C[C@@H](NC(=O)c1cn(-c2c(F)cc(F)cc2F)c2nc(N3C[C@@H](O)[C@H](O)C3)c(F)cc2c1=O)C(F)(F)F [Example 14, 7-[(3R,45)-3,4-dihydroxypyrrolidin-1-yl]-6-fluoro-4-oxo-N-[(2R)-1,1,1-trifluoro-4-methylpentan-2-yl]-1-(2,4,6-trifluorophenyl)-1,4-dihydro-1,8-naphthyridine-3-carboxamide]",49,5.5,100,–
"CC(C)[C@@H](C)NC(=O)c1cn(-c2c(F)cc(F)cc2F)c2nc(N3C[C@@H](O)[C@H](O)C3)c(F)cc2c1=O [Example 15, 7-[(3R,4R)-3,4-dihydroxypyrrolidin-1-yl]-6-fluoro-N-[(2R)-3-methylbutan-2-yl]-4-oxo-1-(2,4,6-trifluorophenyl)-1,4-dihydro-1,8-naphthyridine-3-carboxamide]",41,9.15,96,–

# Results, then the compound that gave them:
Cooperativity (alpha factor) [1],EC50 [2] [nM],Emax [2] [%],Efficiency [2] [%],SMILES
13,6.4,83,–,"CC(NC(=O)c1cn(-c2c(F)cc(F)cc2F)c2nc(N3CCCC[C@@H]3CO)c(F)cc2c1=O)C(F)(F)C(F)(F)F (single isomer, unassigned) [Example 185]"
20,5.8,87,–,"CC(NC(=O)c1cn(-c2c(F)cc(F)cc2F)c2nc(N3CCC(O)(CO)CC3)c(F)cc2c1=O)C(F)(F)C(F)(F)F (single isomer, unassigned) [Example 186, 6-Fluoro-7-[4-hydroxy-4-(hydroxymethyl)piperidin-1-yl]-4-oxo-N-[3,3,4,4,4-pentafluorobutan-2-yl]-1-(2,4,6-trifluorophenyl)-1,4-dihydro-1,8-naphthyridine-3-carboxamide]"
31,6.7,–,93,"C[C@H](NC(=O)c1cn(-c2c(F)cc(F)cc2Cl)c2nc(N3C[C@@H](O)[C@H](O)C3)c(F)cc2c1=O)C(F)(F)F (single isomer, unassigned) [Example 226]"
40,20,90,–,"O=C(NC12CC(C1)C2)c1cn(-c2c(F)cc(F)cc2F)c2nc(N3C[C@@H](O)[C@H](O)C3)c(F)cc2c1=O [Example 12, N-(bicyclo[1.1.1]pent-1-yl)-7-[(3R,4R)-3,4-dihydroxypyrrolidin-1-yl]-6-fluoro-4-oxo-1-(2,4,6-trifluorophenyl)-1,4-dihydro-1,8-naphthyridine-3-carboxamide]"
49,6.2,94,–,"CC(C)(CC(F)(F)F)NC(=O)c1cn(-c2c(F)cc(F)cc2F)c2nc(N3C[C@@H](O)[C@H](O)C3)c(F)cc2c1=O [Example 13, 7-[(3R,4R)-3,4-dihydroxypyrrolidin-1-yl]-6-fluoro-4-oxo-N-(4,4,4-trifluoro-2-methylbutan-2-yl)-1-(2,4,6-trifluorophenyl)-1,4-dihydro-1,8-naphthyridine-3-carboxamide]"
42,8.45,99,–,"CC(C)[C@H](C)NC(=O)c1cn(-c2c(F)cc(F)cc2F)c2nc(N3C[C@@H](O)[C@H](O)C3)c(F)cc2c1=O [Example 16, 7-[(3R,4R)-3,4-dihydroxypyrrolidin-1-yl]-6-fluoro-N-[(2S)-3-methylbutan-2-yl]-4-oxo-1-(2,4,6-trifluorophenyl)-1,4-dihydro-1,8-naphthyridine-3-carboxamide]"
